Source: ChEMBL document CHEMBL4138083, “Design, synthesis and primary biological evaluation of the novel 2-pyridone derivatives as potent non-nucleoside HBV inhibitors” (Eur J Med Chem, 2017)

Columns and labels:
Hepatitis B virus [1] = experiment: Antiviral activity against Hepatitis B virus infected in human HepG2.2.15 cells assessed as inhibition of viral DNA replication at 20 uM after 8 days by real time fluorescent PCR method relative to control; format: functional; details: HepG2.2.15, 192 h
[2] = Cytotoxicity against human HepG2.2.15 cells assessed as reduction in cell viability after 8 days by CCK-8 assay; format: cell-based, HepG2 2.2.15
Hepatitis B virus [3] = experiment: Antiviral activity against Hepatitis B virus infected in human HepG2.2.15 cells assessed as inhibition of HBsAg secretion after 8 days by ELISA; format: functional, organism-based; details: HepG2.2.15, 192 h
Hepatitis B virus [4] = experiment: Antiviral activity against Hepatitis B virus infected in human HepG2.2.15 cells assessed as inhibition of HBeAg secretion after 8 days by ELISA; format: functional, organism-based; details: HepG2.2.15, 192 h
[5] = Selectivity index, ratio of CC50 for human HepG2.2.15 cells to IC50 for Hepatitis B virus infected in human HepG2.2.15 cells assessed as inhibition of HBsAg secretion; format: toxicity, cell-based; details: read-out: Ratio CC50/IC50
[6] = Selectivity index, ratio of CC50 for human HepG2.2.15 cells to IC50 for Hepatitis B virus infected in human HepG2.2.15 cells assessed as inhibition of HBeAg secretion; format: toxicity, cell-based; details: read-out: Ratio CC50/IC50
Hepatitis B virus [7] = experiment: Antiviral activity against Hepatitis B virus infected in human HepG2.2.15 cells assessed as inhibition of viral DNA replication at 4 uM after 8 days by real time fluorescent PCR method relative to control; format: functional; details: HepG2.2.15, 192 h
Hepatitis B virus [8] = experiment: Antiviral activity against Hepatitis B virus infected in human HepG2.2.15 cells assessed as inhibition of viral DNA replication at 0.8 uM after 8 days by real time fluorescent PCR method relative to control; format: functional; details: HepG2.2.15, 192 h
Hepatitis B virus [9] = experiment: Antiviral activity against Hepatitis B virus infected in human HepG2.2.15 cells assessed as inhibition of viral DNA replication at 0.16 uM after 8 days by real time fluorescent PCR method relative to control; format: functional; details: HepG2.2.15, 192 h
Hepatitis B virus [10] = experiment: Antiviral activity against Hepatitis B virus infected in human HepG2.2.15 cells assessed as inhibition of viral DNA replication after 8 days by real time fluorescent PCR method; format: functional, organism-based; details: HepG2.2.15, 192 h
Hepatitis B virus [11] = experiment: Antiviral activity against Hepatitis B virus assessed as inhibition of HBsAg secretion; format: functional, organism-based

Structure (SMILES)	inhibition at 20 µM (Hepatitis B virus [1]) [%]	CC50 at 192 h [2] [µM]	IC50 (Hepatitis B virus [3]) [µM]	IC50 (Hepatitis B virus [4]) [µM]	selectivity ratio [5]	selectivity ratio [6]	inhibition at 4 µM (Hepatitis B virus [7]) [%]	inhibition at 0.8 µM (Hepatitis B virus [8]) [%]	inhibition at 0.16 µM (Hepatitis B virus [9]) [%]	IC50 (Hepatitis B virus [10]) [µM]	IC50 (Hepatitis B virus [11]) [µM]
COc1ccc(C(=O)Nc2c[nH]c(=O)c(-c3ccc4c(c3)OCO4)c2)c(O)c1	51.9	25.2	26.4	24.2	0.95	1.04	–	–	–	–	–
Cc1cccc(-c2cc(NC(=O)c3ccc(Cl)cc3O)c[nH]c2=O)c1	26.5	33.1	39	22.4	0.85	1.48	–	–	–	–	–
COc1ccc(-c2cc(NC(=O)c3cccc(OC)c3O)c[nH]c2=O)cc1	25.3	49.2	34.5	32.8	1.43	1.5	–	–	–	–	–
CCOc1ccc(-c2cc(NC(=O)c3ccc(Cl)cc3O)c[nH]c2=O)cc1	21.9	28.6	23.2	22.8	1.23	1.25	–	–	–	–	–
Cc1cc(C)cc(-c2cc(NC(=O)c3ccccc3O)c[nH]c2=O)c1	21.5	25.1	25.3	25.3	0.99	0.99	–	–	–	–	–
CCOc1ccc(-c2cc(NC(=O)c3ccc(F)cc3O)c[nH]c2=O)cc1	–	51.5	28.4	60.6	1.81	0.85	–	–	–	–	–
COc1cccc(C(=O)Nc2c[nH]c(=O)c(-c3cccc(C)c3)c2)c1O	–	> 100	94.7	> 100	> 1.06	–	–	–	–	–	–
CCOc1ccc(-c2cc(NC(=O)c3ccccc3O)c[nH]c2=O)cc1	37.8	41	15.2	24.6	2.69	1.66	–	–	–	–	–
CCOc1ccc(-c2cc(NC(=O)c3ccc(OC)cc3O)c[nH]c2=O)cc1	4.2	69.6	44.1	41.4	1.58	1.68	–	–	–	–	–
COc1ccc(-c2cc(NC(=O)c3ccccc3O)c[nH]c2=O)cc1	37.9	> 100	> 100	46.4	–	> 2.16	–	–	–	–	–
CCOc1ccc(-c2cc(NC(=O)c3ccc(C)cc3O)c[nH]c2=O)cc1	36.4	> 100	62	91.9	> 1.61	> 1.09	–	–	–	–	–
Cc1cccc(-c2cc(NC(=O)c3ccccc3O)c[nH]c2=O)c1	25.5	98.8	> 100	58.4	< 0.99	1.69	–	–	–	–	–
COc1ccc(-c2cc(NC(=O)c3ccc(OC)cc3O)c[nH]c2=O)cc1	59.3	49.9	26	17.5	1.92	2.86	–	–	–	–	–
CCOc1ccc(-n2cc(C(=O)c3ccc(OC)cc3O)ccc2=O)cc1	53.3	> 100	> 100	51.5	–	> 1.94	–	–	–	–	–
COc1ccc(C(=O)Nc2c[nH]c(=O)c(-c3cccc(C)c3)c2)c(O)c1	60.9	> 100	> 100	44.6	–	> 2.24	–	–	–	–	–
Cc1cccc(-c2cc(NC(=O)c3ccc(C(F)(F)F)cc3O)c[nH]c2=O)c1	23.2	24.2	26.4	26.8	0.92	0.9	–	–	–	–	–
COc1ccc(O)c(C(=O)Nc2c[nH]c(=O)c(-c3cccc(C)c3)c2)c1	40.3	30.1	20.8	16.9	1.44	1.78	–	–	–	–	–
Nc1ccn([C@@H]2CS[C@H](CO)O2)c(=O)n1 [LAMIVUDINE]	81.9	> 100	> 100	> 100	–	–	80.8	56.2	37	0.5	–
COc1ccc(C(=O)Nc2c[nH]c(=O)c(-c3ccc(OC)c(F)c3)c2)c(O)c1	–	50.5	52.2	31.6	0.97	1.6	–	–	–	–	–
COc1ccc(-c2cc(NC(=O)c3ccc(C)cc3O)c[nH]c2=O)cc1	58.1	46.1	89.9	23.6	0.51	1.96	–	–	–	–	–
CCOc1ccc(-c2cc(NC(=O)c3ccc(C(F)(F)F)cc3O)c[nH]c2=O)cc1	76.8	22.2	23.7	24.1	0.94	0.92	47.3	39.5	4.7	3.4	–
COc1c(O)cc2occ(-c3ccc(O)cc3)c(=O)c2c1O [TECTORIGENIN]	–	–	–	–	–	–	–	–	–	–	53.9
Cc1cccc(-c2cc(NC(=O)c3ccc(F)cc3O)c[nH]c2=O)c1	37.6	37.2	65.8	32.3	0.57	1.15	–	–	–	–	–
CCOc1ccc(-c2cc(NC(=O)c3cccc(OC)c3O)c[nH]c2=O)cc1	24.9	34.5	30.5	41.3	1.13	0.83	–	–	–	–	–
CCOc1ccc(-c2cc(NC(=O)c3cc(OC)ccc3O)c[nH]c2=O)cc1	46	57.7	49.1	51.2	1.17	1.13	–	–	–	–	–
COc1ccc(C(=O)Nc2c[nH]c(=O)c(-c3ccc(C)c(C)c3)c2)c(O)c1	< 0	31.3	32.4	33.2	0.97	0.94	–	–	–	–	–
COc1ccc(-c2cc(NC(=O)c3ccc(Cl)cc3O)c[nH]c2=O)cc1	22.9	50.5	79.4	76.9	0.64	0.66	–	–	–	–	–
Cc1cccc(-c2cc(NC(=O)c3ccc(C)cc3O)c[nH]c2=O)c1	–	75	> 100	39.2	< 0.75	1.91	–	–	–	–	–
COc1ccc(C(=O)Nc2c[nH]c(=O)c(-c3cc(C)ccc3C)c2)c(O)c1	< 0	50.4	51.5	25.8	0.98	1.95	–	–	–	–	–
